≈ marks a conversion by molar mass, not a printed value. Where two headings read alike, the source gives them in different places.
How the values were obtained:
[1] = tested on: Staphylococcus aureus Met-S ATCC19636; experiment: microbe, parasite or virus in culture
Clostridium difficile [2] = tested on: Clostridium difficile
[3] = tested on: Enterococcus faecium VanS; experiment: microbe, parasite or virus in culture
[4] = tested on: Enterococcus faecalis VanA; experiment: microbe, parasite or virus in culture; conditions: read-out: Minimal Inhibitory Concentration
Clostridium butyricum [5] = experiment: microbe, parasite or virus in culture; conditions: 48 h, read-out: Minimal Inhibitory Concentration
[6] = tested on: Enterococcus faecalis VanS; experiment: microbe, parasite or virus in culture
[7] = tested on: Staphylococcus aureus Met-S ATCC6538P; experiment: microbe, parasite or virus in culture
[8] = tested on: Enterococcus faecium VanA; experiment: microbe, parasite or virus in culture; conditions: read-out: Minimal Inhibitory Concentration
[9] = tested on: Bacteroides fragilis ATCC 25285; experiment: microbe, parasite or virus in culture; conditions: ATCC25285, 48 h, read-out: Minimal Inhibitory Concentration
Streptococcus pneumoniae [10] = experiment: microbe, parasite or virus in culture; conditions: read-out: Minimal Inhibitory Concentration
[11] = tested on: Candida albicans ATCC 90028; experiment: microbe, parasite or virus in culture; conditions: ATCC90028, 48 h, read-out: Minimal Inhibitory Concentration
Clostridium perfrigens [12] = experiment: microbe, parasite or virus in culture; conditions: 48 h, read-out: Minimal Inhibitory Concentration
Streptococcus pyogenes [13] = experiment: microbe, parasite or virus in culture; conditions: read-out: Minimal Inhibitory Concentration
[14] = tested on: Staphylococcus aureus Met-R; experiment: microbe, parasite or virus in culture; conditions: read-out: Minimal Inhibitory Concentration
[15] = tested on: Clostridium butyricum and Clostridium perfrigens
Escherichia coli [16] = experiment: microbe, parasite or virus in culture; conditions: read-out: Minimal Inhibitory Concentration
[17] = tested on: Peptstreptococcus asaccharolyticus; experiment: organism not typed; conditions: 48 h, read-out: Minimal Inhibitory Concentration
Clostridium perfrigens [18] = tested on: Clostridium perfrigens
Moraxella catharralis [19] = experiment: microbe, parasite or virus in culture; conditions: read-out: Minimal Inhibitory Concentration
Clostridium difficile [20] = experiment: microbe, parasite or virus in culture; conditions: Clostridioides difficile, 48 h
Moraxella catharralis [21] = tested on: Moraxella catharralis
[22] = tested on: Peptstreptococcus asaccharolyticus; conditions: 48 h
Streptococcus pneumoniae [23] = tested on: Streptococcus pneumoniae
[24] = tested on: Enterococcus faecium VanS
[25] = tested on: Enterococcus faecium VanA
Streptococcus pyogenes [26] = tested on: Streptococcus pyogenes
[27] = tested on: Enterococcus faecalis VanA
[28] = tested on: Candida albicans ATCC 90028; conditions: ATCC 90028, 48 h
Clostridium butyricum [29] = conditions: 48 h
[30] = tested on: Gram positive bacteria, including staphylococci and streptococci; experiment: In vitro antibacterial activity, summary statement; assay type: cell-based
Escherichia coli [31] = tested on: Escherichia coli
[32] = tested on: Enterococcus faecalis VanS
[33] = tested on: Bacteroides fragilis ATCC 25285; conditions: ATCC 25285, 48 h
[34] = tested on: Staphylococcus aureus Met-R
[35] = tested on: Staphylococcus aureus Met-S ATCC6538P; conditions: ATCC6538
[36] = range over codes 4013, 1365, 4015

CN[C@H](CC(C)C)C(=O)N[C@H]1C(=O)N[C@@H](CC(N)=O)C(=O)N[C@H]2C(=O)N[C@H]3C(=O)N[C@H](C(=O)N[C@H](C(=O)O)c4cc(O)cc(O)c4-c4cc3ccc4O)[C@H](O)c3ccc(c(Cl)c3)Oc3cc2cc(c3O[C@@H]2O[C@H](CO)[C@@H](O)[C@H](O)[C@H]2O[C@H]2C[C@](C)(N)[C@H](O)[C@H](C)O2)Oc2ccc(cc2Cl)[C@H]1O [VA, vancomycin]
MIC ([1]; ATCC19636, read-out: Minimal Inhibitory Concentration, code 819, +30% bovine serum): 1 µg/mL (≈ 0.69 µM) | MIC ([1]; ATCC19636, read-out: Minimal Inhibitory Concentration, code 819, CAMHB): 0.5 µg/mL (≈ 0.345 µM) | Minimal Inhibitory Concentration, range (Clostridium difficile [2]; [36]): 0.25 to 0.5 mg/L | MIC ([3]; read-out: Minimal Inhibitory Concentration, code 568): 2 µg/mL (≈ 1.38 µM) | MIC ([3]; read-out: Minimal Inhibitory Concentration, code 568, +30% bovine serum): 4 µg/mL (≈ 2.76 µM) | MIC [4]: > 128 µg/mL | MIC (Clostridium butyricum [5]): 1 µg/mL (≈ 0.69 µM) | MIC ([6]; read-out: Minimal Inhibitory Concentration, code 559): 1 µg/mL (≈ 0.69 µM) | MIC ([6]; read-out: Minimal Inhibitory Concentration, code 559, +30% bovine serum): 2 µg/mL (≈ 1.38 µM) | MIC ([7]; read-out: Minimal Inhibitory Concentration, code 100, +30% bovine serum): 1 µg/mL (≈ 0.69 µM) | MIC ([7]; read-out: Minimal Inhibitory Concentration, code 100, CAMHB): 0.25 µg/mL (≈ 0.173 µM) | MIC [8]: > 128 µg/mL | MIC [9]: 32 µg/mL (≈ 22.1 µM) | MIC (Streptococcus pneumoniae [10]): 0.5 µg/mL (≈ 0.345 µM) | MIC [11]: > 128 µg/mL | MIC (Clostridium perfrigens [12]): 1 µg/mL (≈ 0.69 µM) | MIC (Streptococcus pyogenes [13]): 0.25 µg/mL (≈ 0.173 µM) | MIC [14]: 0.5 µg/mL (≈ 0.345 µM) | Minimal Inhibitory Concentration, range [15]: 1 mg/L | MIC (Escherichia coli [16]): > 128 µg/mL | MIC [17]: 0.5 µg/mL (≈ 0.345 µM) | Minimal Inhibitory Concentration (Clostridium perfrigens [18]; code 3607, anaerobic, 48 hours): 1 mg/L | MIC (Moraxella catharralis [19]): > 128 µg/mL | MIC (Clostridium difficile [20]; read-out: Minimal Inhibitory Concentration, code 1365, anaerobic): 0.5 µg/mL (≈ 0.345 µM) | MIC (Clostridium difficile [20]; read-out: Minimal Inhibitory Concentration, code 4013, anaerobic): 0.25 µg/mL (≈ 0.173 µM) | MIC (Clostridium difficile [20]; read-out: Minimal Inhibitory Concentration, code 4015, anaerobic): 0.25 µg/mL (≈ 0.173 µM) | Minimal Inhibitory Concentration (Moraxella catharralis [21]; code 3294): >128 mg/L

CC[C@H](C)[C@@H]1NC(=O)C2NC(=O)[C@H](CC(C)C)NC(=O)C(NC(=O)C3CSCC(NC(=O)[C@H](C)N)C(=O)N[C@@H](CO)C(=O)NCC(=O)N[C@@H](Cc4c[nH]c5ccccc45)C(=O)N[C@@H](C(C)C)C(=O)N3)C(C)SCC(NC(=O)[C@H](CCC(=O)O)NC1=O)C(=O)NCC(=O)NC1C(=O)N[C@@H](C(C)C)C(=O)N[C@@H]([C@@H](C)CC)C(=O)NC(CSC2C)C(=O)N[C@@H](C)C(=O)NC(C(=O)N[C@@H](CCCNC(=N)N)C(=O)O)C[S+]([O-])C1C (some centres unmarked) [NAI-802]
Minimal Inhibitory Concentration [22]: 1 mg/L | Minimal Inhibitory Concentration (Streptococcus pneumoniae [23]): 8 mg/L | Minimal Inhibitory Concentration, range (Clostridium difficile [2]): 0.25 to 2 mg/L | Minimal Inhibitory Concentration [24]: >128 mg/L | Minimal Inhibitory Concentration [25]: 128 mg/L | Minimal Inhibitory Concentration (Streptococcus pyogenes [26]): 0.5 mg/L | Minimal Inhibitory Concentration [27]: 128 mg/L | Minimal Inhibitory Concentration [28]: >128 mg/L | Minimal Inhibitory Concentration (Clostridium butyricum [29]): 0.25 mg/L | Minimal Inhibitory Concentration, range [15]: 0.25 to 2 mg/L | antibacterial activity against Gram positive bacteria ([30]; including staphylococci and streptococci): antibacterial activity against Gram positive bacteria | Minimal Inhibitory Concentration (Escherichia coli [31]): >128 mg/L | Minimal Inhibitory Concentration [32]: 128 mg/L | Minimal Inhibitory Concentration (Clostridium perfrigens [18]; 48 h): 2 mg/L | Minimal Inhibitory Concentration [33]: >128 mg/L | Minimal Inhibitory Concentration [34]: 32 mg/L | Minimal Inhibitory Concentration (Moraxella catharralis [21]): 64 mg/L

CC[C@H](C)[C@@H]1NC(=O)C2NC(=O)[C@H](CC(C)C)NC(=O)C(NC(=O)C3CSCC(NC(=O)[C@H](C)N)C(=O)N[C@@H](CO)C(=O)NCC(=O)N[C@@H](Cc4c[nH]c5ccccc45)C(=O)N[C@@H](C(C)C)C(=O)N3)C(C)SCC(NC(=O)[C@H](CCC(=O)O)NC1=O)C(=O)NCC(=O)NC1C(=O)N[C@@H](C(C)C)C(=O)N[C@@H]([C@@H](C)CC)C(=O)NC(CSC2C)C(=O)N[C@@H](C)C(=O)NC(C(=O)N[C@@H](CCCNC(=N)N)C(=O)NCCN)C[S+]([O-])C1C (some centres unmarked) [NAI-802 monoamide with ethylendiamine]
Minimal Inhibitory Concentration [22]: 0.5 mg/L | Minimal Inhibitory Concentration (Streptococcus pneumoniae [23]): 2 mg/L | Minimal Inhibitory Concentration (Clostridium difficile [2]; code 4013, anaerobic, 48 hours): ≦0.125 mg/L | Minimal Inhibitory Concentration, range (Clostridium difficile [2]; [36]): ≦0.125-1 mg/L | Minimal Inhibitory Concentration [24]: 32 mg/L | Minimal Inhibitory Concentration [35]: 4 mg/L | Minimal Inhibitory Concentration [25]: 16 mg/L | Minimal Inhibitory Concentration (Streptococcus pyogenes [26]; code 49, Todd Hewitt broth): ≦0.125 mg/L | Minimal Inhibitory Concentration [27]: 32 mg/L | Minimal Inhibitory Concentration [28]: >128 mg/L | Minimal Inhibitory Concentration (Clostridium butyricum [29]): 1 mg/L | Minimal Inhibitory Concentration, range [15]: 1 to 8 mg/L | antibacterial activity compared to native NAI-802 ([30]; against certain organisms): more antibacterial active | Minimal Inhibitory Concentration (Escherichia coli [31]): >128 mg/L | Minimal Inhibitory Concentration [32]: 32 mg/L | Minimal Inhibitory Concentration [33]: >128 mg/L | Minimal Inhibitory Concentration [34]: 8 mg/L | Minimal Inhibitory Concentration (Moraxella catharralis [21]): 32 mg/L
